Assay results published in patent publication US12258583B2, “Embryonic erythroblast-containing cell population and method for producing same, cell culture composition, and compound test method” (SUMITOMO CHEMICAL COMPANY, LIMITED, priority 2018, dated 2025).

Legend:
[1] = system: embryonic erythroblast-containing cell population produced from human iPS cells; assay: Compound test using embryonic erythroblast-containing cell population produced from human iPS cells (heme, PPIX by LC-MS, viable cell count, viability); format: cell-based; conditions: DHA 0.5 or 1 μM, SA 10 or 30 μM, Day 18 (Day 8 after start of step (C)); for viable cell count: FIG. 12C; for viability of cells: FIG. 12D
Experimental: The procedure illustrated in FIG. 11 was used to conduct a compound test using an embryonic erythroblast-containing cell population produced from human iPS cells. Differentiation of human iPS cells was induced by substantially the same procedure as in Example 1 to produce an embryonic erythroblast-containing cell population at Day 10 after the start of suspension culture (step (A)) (Step (A) and Step (B)). The cells were centrifuged for 5 min at 1000 rpm in a centrifuge (CF8DL; manufactured by Koki Holdings Co., Ltd.) to remove the supernatant. Next, STEMdiff+B medium was added to the precipitate. Subsequently, the cells were suspended and seeded at 2×10^5 cells in 1.5 mL of medium per well of a […] 6-well plate (manufactured by Corning, Inc.). Then, suspension culture was started (step (C) was started). To the medium at that time was added, as a test compound, dihydroartemisinin (hereinafter, referred to as “DHA”) (at a final concentration of 0.5 μM or 1 μM) or succinylacetone (hereinafter, referred to as “SA”) (at a final concentration of 10 μM or 30 μM). As a solvent control, DMSO was added.
At Day 18 (Day 8 after the start of step (C)) after the start of suspension culture (step (A)), the resulting cell population-containing medium was collected from the 6-well plate. Next, 0.4×10^5 cells to 1×10^5 cells were pipetted into an Eppendorf tube, and centrifuged for 3 min at 7500 rpm in a centrifuge (centrifuge 5424; manufactured by Eppendorf, Inc.) to remove the supernatant and give a cell pellet. The concentration of heme or protoporphyrin IX (hereinafter, referred to as “PPIX”) included in this cell pellet was quantified using liquid chromatography-mass spectrometry (LC-MS) (step (D)). A change in the concentration of heme or PPIX by addition of a test compound was examined to be able to evaluate how the test compound affected the heme biosynthesis pathway. In addition, the number of cells collected after the culture was counted to determine viability.
The concentration of heme or PPIX was represented in weight per 10^6 cells (ng/10^6 cells). DHA or SA, which is known to inhibit heme synthesis, caused a decrease in the heme concentration at Day 18 (Day 8 after the start of step (C)) after the start of suspension culture (step (A)) when compared to a solvent control (FIG. 12A). […] A hypothesis that DHA can induce anemia by inhibiting the most downstream ferrochelatase has been proposed (Clark et al. (2018) Birth Defects Research 110: 553-578). […] In addition, DHA or SA decreased the viable cell count and viability of cells included in the cell population (FIGS. 12C and D). In Example 1, the cell population included embryonic erythroblasts at a high percentage.

REL cells = assay: Differentiation culture of REL cells with inducer, β-globin gene family expression by real-time PCR; format: cell-based, rat; conditions: 1 mM HMBA
Experimental: (§1) The percentage of expression of the β-globin gene family expressed in cells of the above cell population was checked by real-time PCR. The floating cell population-containing medium at Day 10, 14, or 18 after the start of suspension culture (step (1)) was centrifuged for 5 min at 1000 rpm in a centrifuge (CF8DL; manufactured by Koki Holdings Co., Ltd.) to remove the supernatant. The resulting cells were washed with PBS (manufactured by Thermo Fisher Scientific, Inc.), centrifuged for 3 min at 7500 rpm in a centrifuge (centrifuge 5424; manufactured by Eppendorf, Inc.), and then subjected to total RNA extraction from the cells using an RNeasy Micro Kit (manufactured by QIAGEN, Inc.). The resulting total RNA was subjected to reverse transcription using SuperScript III (manufactured by Thermo Fisher Scientific, Inc.). Subsequently, the resulting cDNA was used as a template to perform real-time PCR by using TaqMan probes (manufactured by Thermo Fisher Scientific, Inc.) and a TaqMan Fast Advanced Master Mix (manufactured by Thermo Fisher Scientific, Inc.) in a 96-well plate under Fast PCR conditions according to the instruction in the package insert. The TaqMan probes used were human probes designated in Table 2.
(§2) The gene product containing a TaqMan probe target sequence for each member of the β-globin gene family, namely ε-globin, γ-globin, or β-globin, was used to draw a standard curve. Then, the mRNA copy number for each β-globin gene family member expressed was quantified. The value obtained by dividing the copy number for each β-globin gene family member expressed by the total β-globin gene family copy number was shown as the percentage of expression of each β-globin gene family member. The production of embryonic erythroblast-containing cell population and the analysis by real-time PCR were independently triplicated to calculate the average and the standard error.
REL cells, rat erythroleukemia cells, (obtained from Institute of Molecular Genetics and Genetic Engineering (Prof. Popovic Serbia)) were used as other hematopoietic cells to check a change in expression of ε-globin gene. REL cells were cultured and maintained as follows. RPMI medium (Roswell Park Memorial Institute 1640; manufactured by Thermo Fisher Scientific, Inc.) containing […] FBS (manufactured by Corning, Inc.) and 1% penicillin-streptomycin (manufactured by Sigma-Aldrich Co. LLC) (hereinafter, referred to as “REL medium”) was used, and the cells were subjected to suspension culture on a low-adherent 6-cm dish (manufactured by Sumitomo Bakelite Co., Ltd.). The floating cell-containing medium was collected once every 2 days, and centrifuged for 5 min at 1000 rpm in a centrifuge (SCT5BA; manufactured by Koki Holdings Co., Ltd.) to remove the supernatant. The REL cells were suspended in 5 mL of REL medium and seeded at 5×10^5 cells per dish, and cultured under conditions at 37° C. and 5% CO2.
An inducer (hexamethylene bisacetamide: HMBA) was added to REL cells to check a change in expression of ε-globin over time. For differentiation culture of REL cells, the medium used was REL medium containing HMBA (at a final concentration of 1 mM; manufactured by Sigma-Aldrich Co. LLC.). The REL cells were suspended in 5 mL of the above medium and seeded at 5×10^5 cells per low-adherent 6-cm dish (manufactured by Sumitomo Bakelite Co., Ltd.), and then cultured under conditions at 37° C. and 5% CO2. The floating cell-containing medium was collected at Day 0, 2, 4, or 8 after the start of differentiation culture, and centrifuged for 5 min at 1000 rpm in a centrifuge (SCT5BA; manufactured by Koki Holdings Co., Ltd.) to remove the supernatant.
Like the evaluation protocol by real-time PCR in Example 1, the percentage of expression of each β-globin gene family member expressed in cells was determined by real-time PCR. […] Almost all of the β-globin gene family were an adult erythroblast marker β-globin gene under any of the conditions.

[2] = molecular target: T1, aminolevulinic acid dehydrogenase (Homo sapiens, UniProt P13716); conditions: Sassa et al. (1983); cited from earlier work
T1 sequence (P13716 1-330): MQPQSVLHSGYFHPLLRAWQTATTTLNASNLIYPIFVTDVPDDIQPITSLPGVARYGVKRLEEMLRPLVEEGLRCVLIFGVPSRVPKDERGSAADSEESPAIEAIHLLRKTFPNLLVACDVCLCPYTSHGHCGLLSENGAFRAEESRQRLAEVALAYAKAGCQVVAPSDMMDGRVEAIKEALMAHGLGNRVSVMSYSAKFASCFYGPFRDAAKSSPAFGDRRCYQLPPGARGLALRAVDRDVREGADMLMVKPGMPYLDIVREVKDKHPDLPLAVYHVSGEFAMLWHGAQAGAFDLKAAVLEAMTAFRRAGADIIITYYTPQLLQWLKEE

K562 cells [3] = assay: Differentiation culture of K562 cells with inducer, β-globin gene family expression by real-time PCR; format: cell-based, human; conditions: 1 mM sodium butyrate
Experimental: as §1, §2
Human chronic myeloid leukemia-derived cell line K562 cells (obtained from Health Science Research Resources Bank) were used as other hematopoietic cells to check expression of ε-globin. K562 cells were cultured and maintained as follows. RPMI medium (Roswell Park Memorial Institute 1640; manufactured by Thermo Fisher Scientific, Inc.) containing 10% FBS (manufactured by Corning, Inc.) and 1% penicillin-streptomycin (manufactured by Sigma-Aldrich Co. LLC) (hereinafter, referred to as “K562 medium”) was used, and the cells were subjected to suspension culture on a low-adherent 6-cm dish (manufactured by Sumitomo Bakelite Co., Ltd.). The floating cell-containing medium was collected once every 7 days, and centrifuged for 5 min at 1000 rpm in a centrifuge (SCTSBA; manufactured by Koki Holdings Co., Ltd.) to remove the supernatant. The K562 cells were suspended in 5 mL of K562 medium and seeded at 5×10^5 cells per dish, and cultured under conditions at 37° C. and 5% CO2.
It has been known that addition of an inducer (sodium butyrate) causes an increase in the expression of εs-globin in K562 cells. Thus, a change in expression of ε-globin after addition of sodium butyrate was checked over time. For differentiation culture of K562 cells, K562 medium containing 1 mM sodium butyrate (manufactured by Sigma-Aldrich Co. LLC) was used. The cells were suspended in 5 mL of the above medium and seeded at 5×10^5 cells per low-adherent 6-cm dish, and cultured under conditions at 37° C. and 5% CO2. The floating cell-containing medium was collected at Day 0, 2, 4, or 8 after the start of differentiation culture, and centrifuged for 5 min at 1000 rpm in a centrifuge (SCTSBA; manufactured by Koki Holdings Co., Ltd.) to remove the supernatant.
Like the evaluation protocol by real-time PCR in Example 1, the percentage of expression of each β-globin gene family member expressed in cells was determined by real-time PCR. […] About 30% or less of the β-globin gene family were an embryonic erythroblast marker ε-globin gene under any of the conditions.

K562 cells [4] = conditions: known from the art; cited from earlier work
[5] = Day 2 of differentiation culture
[6] = Day 4 of differentiation culture
[7] = Day 8 of differentiation culture

For C[C@H]1[C@@H](O)O[C@@H]2O[C@@]3(C)CC[C@H]4[C@H](C)CC[C@@H]1[C@@]24OO3 [DHA, dihydroartemisinin], the viable cell count [1] was “decreased” and the viability of cells [1] was “decreased”.

With CC(=O)NCCCCCCNC(C)=O [HMBA, hexamethylene bisacetamide] the “Relative expression level of β-Globin (Hbb) in the β-globin gene family” value (REL cells; [5]) was 100 ± 0.0%, the “Relative expression level of γ-Globin (Hbg1) in the β-globin gene family” value (REL cells; [5]) was 0 ± 0.0% and the “Relative expression level of ε-Globin (Hbe1) in the β-globin gene family” value (REL cells; [5]) was 0 ± 0.0%. For the same molecule, the “Relative expression level of β-Globin (Hbb) in the β-globin gene family” value (REL cells; [6]) was 100 ± 0.0%, the “Relative expression level of γ-Globin (Hbg1) in the β-globin gene family” value (REL cells; [6]) was 0 ± 0.0% and the “Relative expression level of ε-Globin (Hbe1) in the β-globin gene family” value (REL cells; [6]) was 0 ± 0.0%. The “Relative expression level of β-Globin (Hbb) in the β-globin gene family” value (REL cells; [7]) was 99 ± 0.2%, the “Relative expression level of γ-Globin (Hbg1) in the β-globin gene family” value (REL cells; [7]) was 1 ± 0.1% and the “Relative expression level of ε-Globin (Hbe1) in the β-globin gene family” value (REL cells; [7]) was 0 ± 0.0%.

In the case of CC(=O)CC(=O)CCC(=O)O [SA, succinylacetone], the viable cell count [1] is reported as “decreased”, the viability of cells [1] is reported as “decreased” and the “heme concentration compared to a solvent control” value ([1]; LC-MS, ng/10^6 cells, FIG. 12A) is reported as “decrease”. For the same molecule, the “PPIX (protoporphyrin IX) concentration” value ([1]; LC-MS, ng/10^6 cells, FIG. 12B) was “did not largely affect” and the “inhibition of aminolevulinic acid dehydrogenase, upstream in the heme biosynthesis pathway” value [2] was “inhibits”.

With CCCC(=O)[O-].[Na+] [sodium butyrate] the “Relative expression level of β-Globin (HBB) in the β-globin gene family” value (K562 cells [3]; [5]) was 0 ± 0.0%, the “Relative expression level of γ-Globin (HBG2/1) in the β-globin gene family” value (K562 cells [3]; [5]) was 75 ± 1.6% and the “Relative expression level of ε-Globin (HBE1) in the β-globin gene family” value (K562 cells [3]; [5]) was 25 ± 1.6%. The “Relative expression level of β-Globin (HBB) in the β-globin gene family” value (K562 cells [3]; [6]) was 0 ± 0.0%, the “Relative expression level of γ-Globin (HBG2/1) in the β-globin gene family” value (K562 cells [3]; [6]) was 73 ± 1.3% and the “Relative expression level of ε-Globin (HBE1) in the β-globin gene family” value (K562 cells [3]; [6]) was 27 ± 1.3%. For the same molecule, the “Relative expression level of β-Globin (HBB) in the β-globin gene family” value (K562 cells [3]; [7]) was 0 ± 0.0%, the “Relative expression level of γ-Globin (HBG2/1) in the β-globin gene family” value (K562 cells [3]; [7]) was 70 ± 1.9% and the “Relative expression level of ε-Globin (HBE1) in the β-globin gene family” value (K562 cells [3]; [7]) was 30 ± 1.9%. For the same molecule, the “expression of ε-globin in K562 cells after addition of inducer” value (K562 cells [4]) was “increase”.
